Assay results: publication PMC8878748, “Broad-Spectrum Antiviral Activity of the Amphibian Antimicrobial Peptide Temporin L and Its Analogs” (International Journal of Molecular Sciences, 2022)
pIC50: −log10 of the molar value. Where a SMILES comes first, the peptide text is derived from it. [ ]: non-standard residue; d: D form. The star is where a group is joined. X1 = CC(C)CCC[C@@H](C)[C@H]1CC[C@H]2[C@@H]3CC=C4C[C@@H](OC(=O)CCOCCOCCOCCOCCNC(=O)C*)CC[C@]4(C)[C@H]3CC[C@]12C; Pentadecanoyl = CCCCCCCCCCCCCCC(=O)*; Palmitoyl = CCCCCCCCCCCCCCCC(=O)*; Hyp = O=C(O)[C@@H]1C[C@@H](O)CN1; Tridecanoyl = CCCCCCCCCCCCC(=O)*; dHyp = O=C(O)[C@H]1C[C@H](O)CN1; dNle = CCCC[C@@H](N)C(=O)O; Nle = CCCC[C@H](N)C(=O)O

Tests used:
[1] = test system: MeV; conditions: 2 h
[2] = test system: influenza virus (subtype H1N1); conditions: influenza virus (subtype, 2 h)
[3] = Table 2; cited from earlier work
[4] = MTT cytotoxicity assay on Vero cells; format: cell-based; conditions: MTT; for CC50: calculated after 2 h of peptide treatment; for viability: 2 h, concentrations below 25 μM, read-out: viable cells
[5] = test system: HPIV-3; conditions: 2 h
[6] = test system: HCoV-OC43; conditions: 2 h
[7] = test system: HCoV-229E; conditions: 2 h

| Structure (SMILES) | pIC50 [1] | IC90 [1] | pIC50 [2] | IC90 [2] | %Helix in DPC [3] | CC50 [4] | pIC50 [5] | IC90 [5] | pIC50 [6] | IC90 [6] | pIC50 [7] | IC90 [7] | viability [4] |
| --- | --- | --- | --- | --- | --- | --- | --- | --- | --- | --- | --- | --- | --- |
| CC[C@H](C)[C@H](NC(=O)[C@H](CCCNC(=N)N)NC(=O)[C@@H]1CCCN1C(=O)[C@@H](CC(C)C)NC(=O)[C@H](Cc1ccccc1)NC(=O)[C@H](CCCCN)NC(=O)[C@H](CO)NC(=O)[C@H](Cc1ccccc1)NC(=O)[C@H](Cc1c[nH]c2ccccc12)NC(=O)[C@@H]1CCCN1C(=O)[C@@H](NC(=O)[C@@H](N)Cc1ccccc1)C(C)C)C(=O)N[C@@H](CC(C)C)C(N)=O [TL2, H-Phe-Val-Pro-Trp-Phe-Ser-Lys-Phe-DLeu-Pro-Arg-Ile-Leu-NH2] (H-FVPWFSKF[dL]PRIL-NH2) | < 4.30 | > 50 µM | 4.92 | 21.3 µM | 15% | 56.5 µM |  |  |  |  |  |  |  |
| CC[C@H](C)[C@H](NC(=O)[C@H](CCCNC(=N)N)NC(=O)[C@H]1CCCN1C(=O)[C@@H](CC(C)C)NC(=O)[C@H](Cc1ccccc1)NC(=O)[C@H](CCCCN)NC(=O)[C@H](CO)NC(=O)[C@H](Cc1ccccc1)NC(=O)[C@H](Cc1c[nH]c2ccccc12)NC(=O)[C@@H]1CCCN1C(=O)[C@@H](NC(=O)[C@@H](N)Cc1ccccc1)C(C)C)C(=O)N[C@@H](CC(C)C)C(N)=O [TL3, H-Phe-Val-Pro-Trp-Phe-Ser-Lys-Phe-DLeu-DPro-Arg-Ile-Leu-NH2] (H-FVPWFSKF[dL][dP]RIL-NH2) | < 4.30 | > 50 µM | < 4.30 | > 50 µM | 8% | > 100 µM |  |  |  |  |  |  |  |
| CC[C@H](C)[C@H](NC(=O)[C@H](CCCNC(=N)N)NC(=O)[C@@H]1C[C@@H](O)CN1C(=O)[C@@H](CC(C)C)NC(=O)[C@H](Cc1ccccc1)NC(=O)[C@H](CCCCN)NC(=O)[C@H](CO)NC(=O)[C@H](Cc1ccccc1)NC(=O)[C@H](Cc1c[nH]c2ccccc12)NC(=O)[C@@H]1CCCN1C(=O)[C@@H](NC(=O)[C@@H](N)Cc1ccccc1)C(C)C)C(=O)N[C@@H](CC(C)C)C(N)=O [TL4, H-Phe-Val-Pro-Trp-Phe-Ser-Lys-Phe-DLeu-Hyp-Arg-Ile-Leu-NH2] (H-FVPWFSKF[dL][Hyp]RIL-NH2) | < 4.30 | > 50 µM | 4.79 | 31.7 µM | 18% | 60.2 µM | < 4.30 | > 50 µM |  |  |  |  |  |
| CC[C@H](C)[C@H](NC(=O)[C@H](CCCNC(=N)N)NC(=O)[C@H]1C[C@H](O)CN1C(=O)[C@@H](CC(C)C)NC(=O)[C@H](Cc1ccccc1)NC(=O)[C@H](CCCCN)NC(=O)[C@H](CO)NC(=O)[C@H](Cc1ccccc1)NC(=O)[C@H](Cc1c[nH]c2ccccc12)NC(=O)[C@@H]1CCCN1C(=O)[C@@H](NC(=O)[C@@H](N)Cc1ccccc1)C(C)C)C(=O)N[C@@H](CC(C)C)C(N)=O [TL5, H-Phe-Val-Pro-Trp-Phe-Ser-Lys-Phe-DLeu-DHyp-Arg-Ile-Leu-NH2] (H-FVPWFSKF[dL][dHyp]RIL-NH2) | < 4.30 | > 50 µM | < 4.30 | > 50 µM | 9% | > 100 µM | < 4.30 | > 50 µM | < 4.30 | > 50 µM | < 4.30 | > 50 µM |  |
| CCCC[C@H](NC(=O)[C@@H](CC(C)C)NC(=O)[C@H](Cc1ccccc1)NC(=O)[C@H](CCCCN)NC(=O)[C@H](CO)NC(=O)[C@H](Cc1ccccc1)NC(=O)[C@H](Cc1c[nH]c2ccccc12)NC(=O)[C@@H]1CCCN1C(=O)[C@@H](NC(=O)[C@@H](N)Cc1ccccc1)C(C)C)C(=O)N[C@@H](CCCNC(=N)N)C(=O)N[C@H](C(=O)N[C@@H](CC(C)C)C(=O)N[C@@H](CSCC(=O)NCCOCCOCCOCCOCCC(=O)O[C@H]1CC[C@@]2(C)C(=CC[C@H]3[C@@H]4CC[C@H]([C@H](C)CCCC(C)C)[C@@]4(C)CC[C@@H]32)C1)C(N)=O)[C@@H](C)CC [TL6.1, H-Phe-Val-Pro-Trp-Phe-Ser-Lys-Phe-DLeu-Nle-Arg-Ile-Leu-Cys-[PEG4-Cholesterol]-NH2] (H-FVPWFSKF[dL][Nle]RILC(X1)-NH2) | 4.41 | > 50 µM | 5.26 | 10 µM |  | > 100 µM |  |  |  |  |  |  |  |
| CCCCCCCCCCCCC(=O)N[C@@H](Cc1ccccc1)C(=O)N[C@H](C(=O)N1CCC[C@H]1C(=O)N[C@@H](Cc1c[nH]c2ccccc12)C(=O)N[C@@H](Cc1ccccc1)C(=O)N[C@@H](CO)C(=O)N[C@@H](CCCCN)C(=O)N[C@@H](Cc1ccccc1)C(=O)N[C@H](CC(C)C)C(=O)N[C@@H](CCCC)C(=O)N[C@@H](CCCNC(=N)N)C(=O)N[C@H](C(=O)N[C@@H](CC(C)C)C(N)=O)[C@@H](C)CC)C(C)C [TL6.6, H-Tridecanoic acid-Phe-Val-Pro-Trp-Phe-Ser-Lys-Phe-DLeu-Nle-Arg-Ile-Leu-NH2] (Tridecanoyl-FVPWFSKF[dL][Nle]RIL-NH2) | 4.48 | > 50 µM | 5.47 | 6.66 µM |  | > 100 µM |  |  |  |  |  |  |  |
| CCCCCCCCCCCCCCC(=O)N[C@@H](Cc1ccccc1)C(=O)N[C@H](C(=O)N1CCC[C@H]1C(=O)N[C@@H](Cc1c[nH]c2ccccc12)C(=O)N[C@@H](Cc1ccccc1)C(=O)N[C@@H](CO)C(=O)N[C@@H](CCCCN)C(=O)N[C@@H](Cc1ccccc1)C(=O)N[C@H](CC(C)C)C(=O)N[C@@H](CCCC)C(=O)N[C@@H](CCCNC(=N)N)C(=O)N[C@H](C(=O)N[C@@H](CC(C)C)C(N)=O)[C@@H](C)CC)C(C)C [TL6.7, H-Pentadecanoic acid-Phe-Val-Pro-Trp-Phe-Ser-Lys-Phe-DLeu-Nle-Arg-Ile-Leu-NH2] (Pentadecanoyl-FVPWFSKF[dL][Nle]RIL-NH2) | 4.42 | > 50 µM | 5.46 | 8.1 µM |  | > 100 µM |  |  |  |  |  |  |  |
| CCCCCCCCCCCCCCCC(=O)N[C@@H](Cc1ccccc1)C(=O)N[C@H](C(=O)N1CCC[C@H]1C(=O)N[C@@H](Cc1c[nH]c2ccccc12)C(=O)N[C@@H](Cc1ccccc1)C(=O)N[C@@H](CO)C(=O)N[C@@H](CCCCN)C(=O)N[C@@H](Cc1ccccc1)C(=O)N[C@H](CC(C)C)C(=O)N[C@@H](CCCC)C(=O)N[C@@H](CCCNC(=N)N)C(=O)N[C@H](C(=O)N[C@@H](CC(C)C)C(N)=O)[C@@H](C)CC)C(C)C [TL6.8, H-Palmitic acid-Phe-Val-Pro-Trp-Phe-Ser-Lys-Phe-DLeu-Nle-Arg-Ile-Leu-NH2] (Palmitoyl-FVPWFSKF[dL][Nle]RIL-NH2) | 4.40 | > 50 µM | 5.32 | 7.11 µM |  | > 100 µM |  |  |  |  |  |  |  |
| CCCC[C@@H](NC(=O)[C@@H](CC(C)C)NC(=O)[C@H](Cc1ccccc1)NC(=O)[C@H](CCCCN)NC(=O)[C@H](CO)NC(=O)[C@H](Cc1ccccc1)NC(=O)[C@H](Cc1c[nH]c2ccccc12)NC(=O)[C@@H]1CCCN1C(=O)[C@@H](NC(=O)[C@@H](N)Cc1ccccc1)C(C)C)C(=O)N[C@@H](CCCNC(=N)N)C(=O)N[C@H](C(=O)N[C@@H](CC(C)C)C(N)=O)[C@@H](C)CC [TL7, H-Phe-Val-Pro-Trp-Phe-Ser-Lys-Phe-DLeu-DNle-Arg-Ile-Leu-NH2] (H-FVPWFSKF[dL][dNle]RIL-NH2) | < 4.30 | > 50 µM | 5.35 | 13.5 µM | 30% | 32.2 µM | < 4.30 | > 50 µM |  |  |  |  |  |
| CC[C@H](C)[C@H](NC(=O)[C@H](CCCNC(=N)N)NC(=O)[C@H](CCCCN)NC(=O)[C@@H](CC(C)C)NC(=O)[C@H](Cc1ccccc1)NC(=O)[C@H](CCCCN)NC(=O)[C@H](CO)NC(=O)[C@H](Cc1ccccc1)NC(=O)[C@H](Cc1c[nH]c2ccccc12)NC(=O)[C@@H]1CCCN1C(=O)[C@@H](NC(=O)[C@@H](N)Cc1ccccc1)C(C)C)C(=O)N[C@@H](CC(C)C)C(N)=O [TL8, H-Phe-Val-Pro-Trp-Phe-Ser-Lys-Phe-DLeu-Lys-Arg-Ile-Leu-NH2] (H-FVPWFSKF[dL]KRIL-NH2) | 4.43 | > 50 µM | 5.47 | 9.78 µM | 61% | 22.3 µM |  |  |  |  |  |  |  |
| CC[C@H](C)[C@H](NC(=O)[C@H](CCCNC(=N)N)NC(=O)[C@@H](CCCCN)NC(=O)[C@@H](CC(C)C)NC(=O)[C@H](Cc1ccccc1)NC(=O)[C@H](CCCCN)NC(=O)[C@H](CO)NC(=O)[C@H](Cc1ccccc1)NC(=O)[C@H](Cc1c[nH]c2ccccc12)NC(=O)[C@@H]1CCCN1C(=O)[C@@H](NC(=O)[C@@H](N)Cc1ccccc1)C(C)C)C(=O)N[C@@H](CC(C)C)C(N)=O [TL9, H-Phe-Val-Pro-Trp-Phe-Ser-Lys-Phe-DLeu-DLys-Arg-Ile-Leu-NH2] (H-FVPWFSKF[dL][dK]RIL-NH2) | 4.35 | > 50 µM | 5.46 | 11.2 µM | 30% | 45.9 µM |  |  |  |  |  |  | > 65% |
| CC[C@H](C)[C@H](NC(=O)[C@H](CCCNC(=N)N)NC(=O)[C@H](Cc1c[nH]c2ccccc12)NC(=O)[C@@H](CC(C)C)NC(=O)[C@H](Cc1ccccc1)NC(=O)[C@H](CCCCN)NC(=O)[C@H](CO)NC(=O)[C@H](Cc1ccccc1)NC(=O)[C@H](Cc1c[nH]c2ccccc12)NC(=O)[C@@H]1CCCN1C(=O)[C@@H](NC(=O)[C@@H](N)Cc1ccccc1)C(C)C)C(=O)N[C@@H](CC(C)C)C(N)=O [TL10, H-Phe-Val-Pro-Trp-Phe-Ser-Lys-Phe-DLeu-Trp-Arg-Ile-Leu-NH2] (H-FVPWFSKF[dL]WRIL-NH2) | 4.37 | > 50 µM | 5.42 | 12.1 µM | 50% | 35.5 µM |  |  |  |  |  |  | > 65% |
| CC[C@H](C)[C@H](NC(=O)[C@H](CCCNC(=N)N)NC(=O)[C@@H](Cc1c[nH]c2ccccc12)NC(=O)[C@@H](CC(C)C)NC(=O)[C@H](Cc1ccccc1)NC(=O)[C@H](CCCCN)NC(=O)[C@H](CO)NC(=O)[C@H](Cc1ccccc1)NC(=O)[C@H](Cc1c[nH]c2ccccc12)NC(=O)[C@@H]1CCCN1C(=O)[C@@H](NC(=O)[C@@H](N)Cc1ccccc1)C(C)C)C(=O)N[C@@H](CC(C)C)C(N)=O [TL11, H-Phe-Val-Pro-Trp-Phe-Ser-Lys-Phe-DLeu-DTrp-Arg-Ile-Leu-NH2] (H-FVPWFSKF[dL][dW]RIL-NH2) | 4.36 | > 50 µM | 5.52 | 9.77 µM | 40% | 24.1 µM |  |  |  |  |  |  |  |
